The results in this text go back to patent US10480032B2, “Use of EI24 gene” (UNIVERSITY-INDUSTRY FOUNDATION, YONSEI UNIVERSITY, priority 2016, dated 2019).

This series relates to PC9-GR cells expressing exogenous EI24 (9GR-O/E). Briefly: MTT assay in gefitinib-resistant PC9-GR cells over-expressing EI24. The series is classed as cell-based, human. The conditions noted are these: 20 μM gefitinib, ectopic expression of EI24 in PC9-GR, FIG. 3. The method, then: A PC9 EGFR-mutant NSCLC cell line and its gefitinib-resistant derivative (PC9-GR) are described in a document by S. M. Kim et al. (Mol. Cancer Ther. vol. 11, pp. 2254-2264(2012)). All cells were cultured in an RPMI 1640 medium supplemented with 10% […]. A human EI24-overexpressing cell line and a control cell line were established by transfection with a plasmid including FLAG-tagged EI24 and the corresponding empty vector (pcDNA3.1), respectively. Human EI24-knockdown cell lines were established using a method described in a document by J. M. Choi et al. (Oncotarget, vol. 4, pp. 2383-2396(2013)). The shRNA sequences are as follows:
Cells were seeded at a density of 3×10^4 cells/well in a 96-well culture plate and incubated for 24 hours. The cells were exposed to drugs for 48 hours, and 0.4 mg/ml MTT was added until reaching a mid-height of each well. After incubating at 37° C. for 4 hours, formazan crystals in viable cells were solubilized with 100 μl of dimethyl sulfoxide (DMSO). The optical density of the formazan product was read at 590 nm on a microreader (Bio-Rad). All experiments were repeated three times.
In addition, the EI24 gene was over-expressed in a gefitinib-resistant cell line (PC9-GR) among PC9 cell lines and gefitinib was added thereto, and EI24 expression and apoptosis were measured through immunoblotting analysis and MTT assay, respectively. […]

As for `COc1cc2ncnc(Nc3ccc(F)c(Cl)c3)c2cc1OCCCN1CCOCC1` [gefitinib], the cell viability result is recorded as “up to 18%”.
